Source: article PMC10135050, “Neutralizing Carbapenem Resistance by Co-Administering Meropenem with Novel β-Lactam-Metallo-β-Lactamase Inhibitors” (Antibiotics, 2023)
Read-outs that look alike come from different tables or passages of the source.

What was measured:
[1] = tested on: Enterobacter cloacae BM 5 (IMP-1); test: MIC, broth microdilution and checkerboard assay; assay type: cell-based
Description: (§1) The Minimum Inhibitory Concentration (MIC) of meropenem BP2 was determined utilizing the broth microdilution assay, as described by the Clinical and Laboratory Standards Institute (CLSI) antimicrobial susceptibility guidelines. The mono-therapeutic effect of each antibiotic and MBLI was evaluated across a panel of MBL-producing Enterobacterales.
(§2) The drug susceptibility profile of meropenem in combination with BP2 was studied using the checkerboard assay. This assay was used to ascertain the effect of two drugs on antimicrobial resistance targeting CRE strains. The assay was performed according to the protocol described previously and was under CLSI antimicrobial susceptibility guidelines. Briefly, twofold dilutions of meropenem with each chelator were made in Cation-adjusted Mueller Hinton Broth (CAMHB) in a 96-well microtiter plate. A 0.5 McFarland-standardized bacterial inoculum was added to each well to obtain a final volume of 100 µL per well. Thereafter, plates were incubated at 37 °C for 18 h under aerobic conditions. The checkerboard assays were performed in triplicate. The MIC was determined as the lowest concentration at which no visible growth was present. The fractional inhibitory concentration index (FICI) was calculated for each combination according to the equation FICI = FICa (MIC of drug A in combination/MIC of drug A alone) + FICb (MIC of drug B in combination/MIC of drug B alone). The FICI was interpreted as follows: synergy, FICI ≤ 0.5; additive 0.5–1; indifference, […] FICI < 4; and antagonism, FICI ≥ 4 [61].

[2] = tested on: Enterobacter cloacae IR 386 (NDM-1); test: MIC, broth microdilution and checkerboard assay; assay type: cell-based
Description: as §1, §2

[3] = tested on: Enterobacter cloacae KAR (VIM-1); test: MIC, broth microdilution and checkerboard assay; assay type: cell-based
Description: as §1, §2

[4] = tested on: Enterobacter cloacae TWA (IMP-8); test: MIC, broth microdilution and checkerboard assay; assay type: cell-based
Description: as §1, §2

[5] = tested on: Escherichia coli AUS 271 (NDM-1); test: MIC, broth microdilution and checkerboard assay; assay type: cell-based
Description: as §1, §2

[6] = tested on: Escherichia coli BM 14 (VIM-1); test: MIC, broth microdilution and checkerboard assay; assay type: cell-based
Description: as §1, §2

[7] = tested on: Escherichia coli DIH (VIM-19); test: MIC, broth microdilution and checkerboard assay; assay type: cell-based
Description: as §1, §2

[8] = tested on: Escherichia coli FEK (NDM-4); test: MIC, broth microdilution and checkerboard assay; assay type: cell-based
Description: as §1, §2

[9] = tested on: Escherichia coli JAP (IMP-1); test: MIC, broth microdilution and checkerboard assay; assay type: cell-based
Description: as §1, §2

[10] = tested on: Escherichia coli TWA (IMP-8); test: MIC, broth microdilution and checkerboard assay; assay type: cell-based
Description: as §1, §2

[11] = tested on: Klebsiella pneumoniae 6852 (IMP-1); test: MIC, broth microdilution and checkerboard assay; assay type: cell-based
Description: as §1, §2

[12] = tested on: Klebsiella pneumoniae DIH (VIM-19); test: MIC, broth microdilution and checkerboard assay; assay type: cell-based
Description: as §1, §2

[13] = tested on: Klebsiella pneumoniae ENNES (VIM-1); test: MIC, broth microdilution and checkerboard assay; assay type: cell-based
Description: as §1, §2

[14] = tested on: Klebsiella pneumoniae TWA (IMP-8); test: MIC, broth microdilution and checkerboard assay; assay type: cell-based
Description: as §1, §2

[15] = tested on: Providencia Rettgeri IR38 (NDM-1); test: MIC, broth microdilution and checkerboard assay; assay type: cell-based
Description: as §1, §2

[16] = tested on: Providencia stuartii PSTU (NDM-1); test: MIC, broth microdilution and checkerboard assay; assay type: cell-based
Description: as §1, §2

[17] = tested on: Serratia marcescens (IMP-11); test: MIC, broth microdilution and checkerboard assay; assay type: cell-based
Description: as §1, §2

[18] = tested on: Serratia marcescens BM 20 (VIM-2); test: MIC, broth microdilution and checkerboard assay; assay type: cell-based
Description: as §1, §2

[19] = Plasma drug concentrations in the in vivo efficacy study; conditions: male, mouse, 100 mg/kg IP every two hours, infected BALB/c mice
Description: A murine thigh infection model described by Michail et al. was performed with minor modifications. Male Bragg inbred albino c-strain (BALB/c) mice weighing 20–25 g (n = 90) were used in this study. Each of the three groups constituted n = 30 mice, with n = 6 mice receiving treatment every two hours. Prior to infection, mice were IP treated with 150 mg/kg cyclophosphamide on day one and 100 mg/kg on day four of the trial. This was performed to induce neutropenia in the mice. Neutropenia was confirmed by a neutrophil count of <100/mm^3. On day five of the trial, 0.1 mL inoculum containing 10^6–10^8 cfu/mL of K. pneumoniae NDM were IM injected into the right thigh of the mice to initiate infection. Meropenem monotherapy, BP2 + meropenem combination therapy, or normal saline was administered every two hours in an eight-hour treatment period. Mice were euthanized by isoflurane overdose at 2 h, 4 h, 6 h and 8 h post dosing. The right thigh muscle was then aseptically removed and homogenized in 5 mL PBS. Homogenates were spread onto Mueller–Hinton agar and MacConkey agar plates, followed by incubation at 35 °C for 24 h and enumeration of the cfu/mL.
A Shimadzu Nexera Series (Shimadzu Corporation, Kyoto, Japan) liquid chromatography system was coupled with Shimadzu LCMS-8050 tandem mass spectrometer (Shimadzu, Kyoto, Japan). The chromatographic separation was achieved using a Shim-Pack Velox SP-C18 column (100 mm × 2.1 mm, 2.7 µm particle size) with a gradient mobile phase comprised of Millipore water (0.1% v/v trifluoroacetic acid) (A) and Acetonitrile (0.1% v/v trifluoroacetic acid) (B). The gradient method started from 5 to 95% B in 8 min, then held at 95% B for up to 12 min; thereafter, it was brought back to 5% B at 12.1 min. The column was equilibration time was 2.9 min with a flow rate of 0.4 mL min^−1 and the column oven temperature at 40 °C. The injection volume was 25 µL, and the total run time of the method was 15 min. Quantitative and qualitative studies were conducted using MRM mode via an ESI interface, with the following source parameters: nitrogen nebulizer gas flow 3 L/min; heat gas 10 L/min and interface temperature of 300 °C. The precursor and product ions optimized were m/z 813.2→330.0 for BP2, m/z 384.50→68.25 for meropenem and m/z 350.50→304.40 for Ampicillin (IS). Results were analyzed using LabSolutions Insight LCMS. All data are expressed as a mean ± SD.
Figure 6 Plasma BP2 and meropenem concentrations over the eight-hour treatment period. BALB/c mice were infected intramuscularly (IM) in the right thigh with 10^6–10^8 K. pneumoniae NDM cfu/mL. Treatment was initiated two hours post infection with either S, M, or BP2. Four treatment doses were administered via intraperitoneal (IP) injection every two hours. Data are presented as a mean ± SD (n = 6). Meropenem-only (red triangle)—animals treated with meropenem only, Meropenem with BP2 (red circles)—meropenem concentration when animals were treated with the BP2 combination. BP2 with meropenem (green square)—concentration of BP2 when animals were treated with the meropenem combination.

SMILES: CON=C(C(=O)NC1C(=O)N2C(C(=O)O)=C(COC(C)=O)CSC12)c1csc(NC(=O)CC(C(=O)OC)N2CCN(CC(=O)O)CCN(CC(=O)O)CC2)n1 (stereo in doubt) [BP2]
- MIC ([1]; read-out: MIC BP2 Alone): > 256 µg/mL
- MIC ([2]; read-out: MIC BP2 Alone): > 256 µg/mL
- MIC ([3]; read-out: MIC BP2 Alone): > 256 µg/mL
- MIC ([4]; read-out: MIC BP2 Alone): > 256 µg/mL
- MIC ([5]; read-out: MIC BP2 Alone): > 256 µg/mL
- MIC ([6]; read-out: MIC BP2 Alone): > 256 µg/mL
- MIC ([7]; read-out: MIC BP2 Alone): > 256 µg/mL
- MIC ([8]; read-out: MIC BP2 Alone): > 256 µg/mL
- MIC ([9]; read-out: MIC BP2 Alone): > 256 µg/mL
- MIC ([10]; read-out: MIC BP2 Alone): > 256 µg/mL
- MIC ([11]; read-out: MIC BP2 Alone): > 256 µg/mL
- MIC ([12]; read-out: MIC BP2 Alone): > 256 µg/mL
- MIC ([13]; read-out: MIC BP2 Alone): > 256 µg/mL
- MIC ([14]; read-out: MIC BP2 Alone): > 256 µg/mL
- MIC ([15]; read-out: MIC BP2 Alone): > 256 µg/mL
- MIC ([16]; read-out: MIC BP2 Alone): > 256 µg/mL
- MIC ([17]; read-out: MIC BP2 Alone): > 256 µg/mL
- MIC ([18]; read-out: MIC BP2 Alone): > 256 µg/mL
- concentration at 2 h [19]: 2670 ng/mL
- concentration at 4 h [19]: 6970 ng/mL
- concentration at 6 h [19]: 4430 ng/mL
- concentration at 8 h [19]: 3490 ng/mL

SMILES: C[C@@H](O)[C@H]1C(=O)N2C(C(=O)O)=C(S[C@@H]3CN[C@H](C(=O)N(C)C)C3)[C@H](C)[C@H]12 [Meropenem]
- MIC ([1]; read-out: MIC MEM Alone): > 32 µg/mL
- MIC ([2]; E. cloacae IR 386 NDM-1, alone, read-out: MIC MEM Alone): 32 µg/mL
- MIC ([3]; E. cloacae KAR VIM-1, alone, read-out: MIC MEM Alone): 4 µg/mL
- MIC ([4]; E. cloacae TWA IMP-8, alone, read-out: MIC MEM Alone): 0.125 µg/mL
- MIC ([5]; E. coli AUS 271 NDM-1, alone, read-out: MIC MEM Alone): > 128 µg/mL
- MIC ([6]; E. coli BM 14 VIM-1, alone, read-out: MIC MEM Alone): 32 µg/mL
- MIC ([7]; E. coli DIH VIM-19, alone, read-out: MIC MEM Alone): > 32 µg/mL
- MIC ([8]; E. coli FEK NDM-4, alone, read-out: MIC MEM Alone): > 32 µg/mL
- MIC ([9]; E. coli JAP IMP-1, alone, read-out: MIC MEM Alone): 8 µg/mL
- MIC ([10]; E. coli TWA IMP-8, alone, read-out: MIC MEM Alone): 8 µg/mL
- MIC ([11]; K. pneumoniae 6852 IMP-1, alone, read-out: MIC MEM Alone): > 32 µg/mL
- MIC ([12]; K. pneumoniae DIH VIM-19, alone, read-out: MIC MEM Alone): 32 µg/mL
- MIC ([13]; K. pneumoniae ENNES VIM-1, alone, read-out: MIC MEM Alone): > 32 µg/mL
- MIC ([14]; K. pneumoniae TWA IMP-8, alone, read-out: MIC MEM Alone): 8 µg/mL
- MIC ([15]; P. Rettgeri IR38 NDM-1, alone, read-out: MIC MEM Alone): 32 µg/mL
- MIC ([16]; P. stuartii PSTU NDM-1, alone, read-out: MIC MEM Alone): 32 µg/mL
- MIC ([17]; S. marcescens IMP-11, alone, read-out: MIC MEM Alone): > 32 µg/mL
- MIC ([18]; S. marcescens BM 20 VIM-2, alone, read-out: MIC MEM Alone): > 32 µg/mL
- concentration at 2 h [19]: 7060 ng/mL
- concentration at 4 h [19]: 27500 ng/mL
- concentration at 6 h [19]: 14900 ng/mL
- concentration at 8 h [19]: 8840 ng/mL
